The target of assay [1] is T1, N-SH3 domain of Crkl (WT) (Homo sapiens, UniProt P46109).
T1 construct: The construct encoding the N-SH3 domain of Crkl was subcloned in a pET28b+ plasmid vector; His-tag; made in house; host or cells: E. coli BL21
Nature of the assay: Stopped-flow displacement, N-SH3 WT:dansylated C3G277–296 complex versus nondansylated peptide. Type of assay: binding. The note with it: 10 °C. Here is the method:
(§1) We rapidly mixed a constant concentration of C3G277–296 peptide (0.5 µM) versus increasing concentrations of N-SH3 (ranging from 0.5 to 5 µM) and the observed rate constants (kobs) obtained at different ionic strength conditions (buffer Hepes 50 mM, pH 7.0, 0.15 M, 0.3 M, 0.5 M and 1 M NaCl) were plotted as function of concentration of N-SH3 and fitted with a linear equation (Figure 1). By following previously derived equations [19, 20], the dependence of kobs as function of [N-SH3] was fitted with Equation (1), taking into account the non-pseudo-first order conditions, allowing us to calculate the microscopic association rate constant (kon), the microscopic dissociation rate constant (koff) of the binding reaction and the equilibrium dissociation rate constant KD, such as koff/kon. To increase the reliability of the calculated KD, we resorted to directly obtaining a koff value through displacement experiments (Table 1), in which a preincubated complex of N-SH3 domain and dansylated C3G277–296 peptide (at the concentration of 0.5 and 2 µM, respectively) were rapidly mixed versus a high excess of nondansylated peptide (ranging from 20 to 40 µM). In agreement with the theory in [21], the observed rate constants were insensitive to displacer concentration. In all binding and displacement experiments conducted, traces were satisfactorily fitted with a single-exponential equation. (1) kobs=(kon^2∗(2−[NSH3])^2+koff^2+2konkoff(2+[NSH3]))^1/2
Kinetic binding experiments were performed on a single-mixing SX-18 stopped-flow instrument (Applied Photophysics), by mixing a constant concentration (0.5 μM) of C3G dansylated versus increasing concentrations of N-SH3 at 10 °C. Ionic strength dependence of wt N-SH3 was performed with concentrations ranging from 1 to 5 µM for 0 M NaCl condition and from 0.5 to 5 µM for 0.15 M, 0.3 M, 0.5 M and 1 M NaCl, buffer Hepes 50 mM pH 7.0. The excitation wavelength was 280 nm, and fluorescence was collected using a 455 nm cut-off filter. At least, five independent acquisitions were collected and averaged for each experiment. The resulting averages were all satisfactorily fitted with a single-exponential equation. Buffers used for pH dependence were: 50 mM Sodium Acetate pH 5.0, 50 mM Sodium Acetate, pH 5.5, Bis–Tris 50 mM pH 6.0, Bis–Tris 50 mM pH 6.5, Hepes 50 mM pH 7.0, Hepes 50 mM pH 7.5, Tris–HCl 50 mM pH 8.0, Tris–HCl 50 mM pH 8.5, Tris–HCl 50 mM pH 9.0, all with added 0.5 M NaCl. Concentrations of N-SH3 used for each experiment were: 4.0–8.0 µM at pH 5.0, 2.0–7.0 µM at pH 5.5, 1.0–5.0 µM at pH 6.0, 0.5–5.0 µM at pH 6.5, 1.5–6.0 µM at pH 7.0, 0.5–5.0 µM at pH 7.5, 1.5–6.0 µM at pH 8.0, 1.5–6.0 µM pH 8.5, 1.5–6.0 µM at pH 9.0. For the ionic strength dependence of D138A and E140A variants buffer used were 0.05 M NaCl, 0.1 M NaCl, 0.15 M NaCl, in 50 mM Hepes pH 7.5. Concentrations of N-SH3 D138A used for each experiment were: 2.0–4.5 µM at 0 M NaCl, 2.5–6.0 µM at 0.05 M, 0.1 M, 0.15 M NaCl. Concentrations of N-SH3 E140A used for each experiment were: 2.0–4.5 µM at 0 M NaCl, 3.0–5.5 µM at 0.05 M NaCl, 3.0–5.0 µM at 0.1 M NaCl, 3.0–5.5 µM at 0.15 M NaCl. Displacement kinetic experiments were performed by mixing a preincubated complex of N-SH3 (in all its variants) and dansylated C3G versus a high excess of nondansylated C3G (see text for details). Experiments were performed in the same buffer conditions as the binding experiments, except for D141A variant, for which 20% w/v sucrose was added to the buffer Hepes 50 mM pH 7.0. Displacement traces were fitted with a single-exponential equation.

A further assay deals with T2, N-SH3 E140A (Crkl) (Homo sapiens, UniProt P46109, E140A).
T2 construct: The construct encoding the N-SH3 domain of Crkl was subcloned in a pET28b+ plasmid vector; His-tag; made in house; host or cells: E. coli BL21
The experiment in a line: Stopped-flow displacement, N-SH3 E140A:dansylated C3G277–296 complex. In kind it is binding. The note with it: pH 7.5, E140A, 50 mM Hepes pH 7.5, 10 °C. Here is the method: as §1
Kinetic binding experiments were performed on a single-mixing SX-18 stopped-flow instrument (Applied Photophysics), by mixing a constant concentration (0.5 μM) of C3G dansylated versus increasing concentrations of N-SH3 at 10 °C. Ionic strength dependence of wt N-SH3 was performed with concentrations ranging from 1 to 5 µM for 0 M NaCl condition and from 0.5 to 5 µM for 0.15 M, 0.3 M, 0.5 M and 1 M NaCl, buffer Hepes 50 mM pH 7.0. The excitation wavelength was 280 nm, and fluorescence was collected using a 455 nm cut-off filter. At least, five independent acquisitions were collected and averaged for each experiment. The resulting averages were all satisfactorily fitted with a single-exponential equation. Buffers used for pH dependence were: 50 mM Sodium Acetate pH 5.0, 50 mM Sodium Acetate, pH 5.5, Bis–Tris 50 mM pH 6.0, Bis–Tris 50 mM pH 6.5, Hepes 50 mM pH 7.0, Hepes 50 mM pH 7.5, Tris–HCl 50 mM pH 8.0, Tris–HCl 50 mM pH 8.5, Tris–HCl 50 mM pH 9.0, all with added 0.5 M NaCl. Concentrations of N-SH3 used for each experiment were: 4.0–8.0 µM at pH 5.0, 2.0–7.0 µM at pH 5.5, 1.0–5.0 µM at pH 6.0, 0.5–5.0 µM at pH 6.5, 1.5–6.0 µM at pH 7.0, 0.5–5.0 µM at pH 7.5, 1.5–6.0 µM at pH 8.0, 1.5–6.0 µM pH 8.5, 1.5–6.0 µM at pH 9.0. […]

Molecules are shown by their SMILES. Peptide text beside a SMILES is read from it. * marks the point of attachment. Dansyl = CN(C)c1cccc2c(S(=O)(=O)*)cccc12

T1 sequence (P46109 123-183 limits assumed): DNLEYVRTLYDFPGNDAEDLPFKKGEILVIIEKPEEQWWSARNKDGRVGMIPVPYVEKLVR
T2 sequence (P46109 123-183 E140A limits assumed): as the sequence (P46109 123-183 limits assumed) above, with E18A counted along it

`CC(C)C[C@H](NC(=O)[C@H](C)NC(=O)[C@@H]1CCCN1C(=O)[C@@H]1CCCN1C(=O)[C@@H]1CCCN1C(=O)[C@H](CO)NC(=O)[C@H](CC(N)=O)NC(=O)[C@H](CC(=O)O)NC(=O)[C@@H](NC(=O)[C@@H](NS(=O)(=O)c1cccc2c(N(C)C)cccc12)C(C)C)C(C)C)C(=O)N1CCC[C@H]1C(=O)N1CCC[C@H]1C(=O)N[C@@H](CCCCN)C(=O)N[C@@H](CCCCN)C(=O)N[C@@H](CCCNC(=N)N)C(=O)N[C@@H](CCC(N)=O)C(=O)N[C@@H](CO)C(=O)N[C@@H](C)C(=O)N1CCC[C@H]1C(=O)N[C@@H](CO)C(=O)O` [C3G277–296] (Dansyl-VVDNSPPPALPPKKRQSAPS-OH): the koff – broadly, the first-order rate constant of dissociation – in assay [1] (pH 5, pH 5.0 (50 mM Sodium Acetate), 0.5 M NaCl, displacement) amounted to 257 ± 10 s⁻¹; in assay [1] (pH 5.5, pH 5.5 (50 mM Sodium Acetate), 0.5 M NaCl, displacement), 81 ± 3 s⁻¹; in assay [1] (pH 6, pH 6.0 (Bis–Tris 50 mM), 0.5 M NaCl, displacement) it was 78 ± 3 s⁻¹; in assay [1] (pH 6.5, pH 6.5 (Bis–Tris 50 mM), 0.5 M NaCl, displacement), 65 ± 2 s⁻¹; in assay [1] (pH 7, 0 M NaCl, Hepes 50 mM pH 7.0, displacement by 20–40 µM nondansylated peptide), 12 ± 1 s⁻¹; in assay [1] (pH 7, 0.15 M NaCl, Hepes 50 mM pH 7.0, displacement) it was 23 ± 1 s⁻¹. The koff in assay [1] (pH 7, 0.3 M NaCl, Hepes 50 mM pH 7.0, displacement) is 32 ± 2 s⁻¹; in assay [1] (pH 7, 0.5 M NaCl (ionic strength series), Hepes 50 mM pH 7.0, displacement) it was 34 ± 1 s⁻¹; in assay [1] (pH 7, 1.0 M NaCl, Hepes 50 mM pH 7.0, displacement), 51 ± 2 s⁻¹; in assay [1] (pH 7, pH 7.0 (Hepes 50 mM), 0.5 M NaCl (pH series), displacement), 42 ± 2 s⁻¹; in assay [1] (pH 7.5, pH 7.5 (Hepes 50 mM), 0.5 M NaCl, displacement), 34 ± 2 s⁻¹; in assay [1] (pH 8, pH 8.0 (Tris–HCl 50 mM), 0.5 M NaCl, displacement), 46 ± 3 s⁻¹. Further, the off-rate (koff) in assay [1] (pH 8.5, pH 8.5 (Tris–HCl 50 mM), 0.5 M NaCl, displacement) turned out to be 40 ± 3 s⁻¹; in assay [1] (pH 9, pH 9.0 (Tris–HCl 50 mM), 0.5 M NaCl, displacement), 39 ± 2 s⁻¹; at N-SH3 E140A (Crkl) (0 M NaCl), 254 ± 3 s⁻¹; on N-SH3 E140A (Crkl) (0.05 M NaCl), 330 ± 3 s⁻¹; at N-SH3 E140A (Crkl) (0.10 M NaCl), 302 ± 2 s⁻¹; on N-SH3 E140A (Crkl) (0.15 M NaCl), 339 ± 2 s⁻¹.

(Values after paper PMC8705818, “Experimental Characterization of the Interaction between the N-Terminal SH3 Domain of Crkl and C3G” (International Journal of Molecular Sciences, 2021).)
